Measurements: US11351274B2, “Methods of using optical agents” (MediBeacon Inc., priority 2006, dated 2022)
Where two headings read alike, the source gives them in different places.

Key:
[1] = Renal clearance in an intact rat (fluorescence from within the ear); assay type: in vivo, Sprague-Dawley rat; details: bolus injection into lateral tail vein, 2 ml of 0.4 mg/ml in PBS, 470 nm laser at ear
Protocol: (§1) Incident laser light having a wavelength of about 470 nm was delivered via a fiber optic bundle to the ear of an anesthetized intact Sprague-Dawley rat. A photodetector was used to detect fluorescence from within the ear. A background reading of fluorescence was obtained prior to administration of optical agent. A pyrazine agent (2 ml of a 0.4 mg/ml solution of 3,6-diaminopyrazine-2,5-dicarbonyl acid in PBS) was then administered to the rat by a bolus injection into the lateral tail vein.
The blood clearance time profile likely followed a two compartment pharmacokinetic model. The fluorescent signal arising from the agent concentration in the blood as a function of time was therefore fit to a double exponential decay. The equation employed to fit the data was: S=Ae^−t/τ1Be^−t/τ2+C (1) where S is the fluorescent light intensity signal measured, and t is the time point of the measurement. The decay times τ1 and τ2, and the constants A, B, and C were deduced from the fitting procedure. The non-linear regression analysis package in SigmaPiot® (Systat Software Inc., Richmond Calif.) was used to fit data to Eq. (1). In this and the following example, τ1 represents the time constant for vascular-extracellular fluid equilibrium, and T2 represents optical agent clearance from the blood.

[2] = Renal clearance in a bilaterally nephrectomized rat (fluorescence from within the ear); assay type: in vivo, Sprague-Dawley rat; details: bilaterally nephrectomized rat compared with intact rat
Protocol: as §1, with “An anesthetized Sprague-Dawley rat was bilaterally nephrectomized. Incident” for “Incident”, “of the” for “of an anesthetized intact Sprague-Dawley”, “of the pyrazine” for “of optical”, “agent. The” for “agent. A”, “vein. […] Specifically, the renal arteries were tied off to block blood flow to the kidneys.” for “vein.”
A comparison of clearance data from the intact rat (FIG. 1) and the bilaterally nephrectomized rat (FIG. 2) is shown in FIG. 3.

[3] = Detection of optical agent in a rat ureter by fluorescence; assay type: in vivo, Sprague-Dawley rat
Protocol: A Sprague-Dawley rat was anesthetized with a cocktail of ketamine (87 mg/kg) and xylazine (2.6 mg/kg) administered by intraperitoneal injection. After the animal had achieved the desired plane of anesthesia, a 25 gauge butterfly with 3″ tubing was placed in the lateral tail vein of the animal and flushed with saline, The rat was placed onto a heating pad and kept warm throughout the study.
An abdominal incision was made to access the ureters and expose the ureters to a laser having the appropriate wavelength to cause the optical agent employed to fluoresce. Data acquisition was initiated, and a background reading of fluorescence was obtained prior to administration of the optical agent.
The optical agent, 3,6-diaminopyrazine-2,5-dicarboxylic acid, was administered to the rat by a bolus injection into the lateral tail vein and traveled through the circulatory system and kidneys to reach the ureters. The dose of optical agent was about 2 mL of 0.4 mg/mL solution in PBS. The rat weighed approximately 250 g.
A 3 mW laser from Power Technology, Inc. (Little Rock, […].) was used to emit light into one end of a fiber optic bundle, the other end of the bundle being positioned adjacent the ureter. […] As shown in FIGS. 5-6, when the surgical field was exposed to incident light having a wavelength of about 470 nm, the optical agent within the ureters emitted fluorescent energy at a wavelength of about 530 nm. Images of the surgical field showing the fluorescing optical agent in the ureter are shown in FIGS. 5-6 (in the absence of a 500 nm long pass filter) and FIG. 7 (in the presence of a 500 nm long pass filter).

[4] = Excitation and emission wavelengths of optical agents; assay type: physicochemical; details: see Example 3 and FIG. 4
From the text: In one exemplary embodiment, the optical agent is excited by light having a wavelength in the blue range of the visible portion of the electromagnetic spectrum (from about 430 nm to about 500 nm) and emits at a wavelength in the green range of the visible portion of the electromagnetic spectrum (from about 520 nm to about 565 nm). For example, fluorescein dyes can be excited with light with a wavelength of about 488 nm and have an emission wavelength of about 520 nm. As another example, 3,6-diaminopyrazine-2,5-dicarboxylic acid can be excited with light having a wavelength of about 470 nm and fluoresces at a wavelength of about 532 nm (see Example 3 and FIG. 4 herein).
In another embodiment, the excitation and emission wavelengths of the optical agent may fall in the near-infrared range of the electromagnetic spectrum. For example, indocyanine dyes, such as indocyanine green, can be excited with light with a wavelength of about 780 nm and have an emission wavelength of about 830 nm.

[5] = general statement in the description; cited from earlier work

Structure (SMILES)	period over which the agent was cleared from the bloodstream [1]	route of excretion concluded from failure to clear [2]	fluorescence emission wavelength within the ureters ([3]; incident light of about 470 nm, in vivo in rat ureter)	time after intravenous administration at which fluorescence within the ureter was detected ([3]; rat, about 2 mL of 0.4 mg/mL in PBS, tail vein bolus)	localisation of fluorescence in the surgical field ([3]; rat, ureter versus surrounding tissue)	fluorescence emission wavelength ([4]; excitation about 470 nm)	excitation wavelength [4]	emission wavelength [5]	excitation wavelength [5]
Nc1nc(C(=O)O)c(N)nc1C(=O)O [3,6-diaminopyrazine-2,5-dicarboxylic acid]	slightly over twenty	renally excretable	about 530 nm	about 40 minutes	only observed from the ureter and not from any surrounding tissue	about 532 nm	about 470 nm	–	–
CC1(C)C(/C=C/C=C/C=C/C=C2\N(CCCCS(=O)(=O)O)c3ccc4ccccc4c3C2(C)C)=[N+](CCCCS(=O)(=O)[O-])c2ccc3ccccc3c21 [indocyanine green]	–	–	–	–	–	–	–	about 830 nm	about 780 nm
